Experimental data reported in the supplement of paper PMC10307832.

Legend:
Test in all cases: relative viability (nuclei count vs DMSO), 5 days (fraction); higher = more cells survive
Fedratinib + AZD7762 = compound: Cc1cnc(Nc2ccc(OCCN3CCCC3)cc2)nc1Nc1cccc(S(=O)(=O)NC(C)(C)C)c1 [Fedratinib] + NC(=O)Nc1cc(-c2cccc(F)c2)sc1C(=O)N[C@H]1CCCNC1 [AZD7762] (partner 0.2 µM)
In short: (§1)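 Relative viability equals treated-well nuclei counts divided by vehicle-well nuclei counts. Counts came from 4× images of lung cancer cell lines grown in 1536-well plates for 5 days after pin-tool dosing on the day after seeding. Dosing used one drug alone or a fixed anchor-drug dose plus five library-drug doses (not always all listed) in √10 steps, and values are medians of duplicate plates.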

GW-2580 + Tozasertib = compound: COC1=CC=C(C=C1)COC2=C(C=C(C=C2)CC3=CN=C(N=C3N)N)OC [GW-2580] + Cc1cc(Nc2cc(N3CCN(C)CC3)nc(Sc3ccc(NC(=O)C4CC4)cc3)n2)n[nH]1 [Tozasertib] (partner 0.1 µM)
In short: as §1

GW-2580 + Luminespib = compound: COC1=CC=C(C=C1)COC2=C(C=C(C=C2)CC3=CN=C(N=C3N)N)OC [GW-2580] + CCNC(=O)c1noc(-c2cc(C(C)C)c(O)cc2O)c1-c1ccc(CN2CCOCC2)cc1 [Luminespib] (partner 0.01 µM)
In short: as §1

Fedratinib + Pictilisib = compound: Cc1cnc(Nc2ccc(OCCN3CCCC3)cc2)nc1Nc1cccc(S(=O)(=O)NC(C)(C)C)c1 [Fedratinib] + CS(=O)(=O)N1CCN(Cc2cc3nc(-c4cccc5[nH]ncc45)nc(N4CCOCC4)c3s2)CC1 [Pictilisib] (partner 1 µM)
In short: as §1

GW-2580 + Olaparib = compound: COC1=CC=C(C=C1)COC2=C(C=C(C=C2)CC3=CN=C(N=C3N)N)OC [GW-2580] + O=C(c1cc(Cc2n[nH]c(=O)c3ccccc23)ccc1F)N1CCN(C(=O)C2CC2)CC1 [Olaparib] (partner 8 µM)
In short: as §1

Cell Line	relative viability (Fedratinib + AZD7762; first compound 0.1 µM)	relative viability (Fedratinib + AZD7762; first compound 0.3162 µM)	relative viability (Fedratinib + AZD7762; first compound 1 µM)	relative viability (GW-2580 + Tozasertib; first compound 0.08 µM)	relative viability (GW-2580 + Tozasertib; first compound 0.8 µM)	relative viability (GW-2580 + Tozasertib; first compound 2.53 µM)	relative viability (GW-2580 + Tozasertib; first compound 8 µM)	relative viability (GW-2580 + Luminespib; first compound 0.08 µM)	relative viability (GW-2580 + Luminespib; first compound 0.8 µM)	relative viability (GW-2580 + Luminespib; first compound 2.53 µM)	relative viability (GW-2580 + Luminespib; first compound 8 µM)	relative viability (Fedratinib + Pictilisib; first compound 0.1 µM)	relative viability (Fedratinib + Pictilisib; first compound 0.3162 µM)	relative viability (Fedratinib + Pictilisib; first compound 1 µM)	relative viability (GW-2580 + Olaparib; first compound 0.08 µM)	relative viability (GW-2580 + Olaparib; first compound 0.8 µM)	relative viability (GW-2580 + Olaparib; first compound 2.53 µM)	relative viability (GW-2580 + Olaparib; first compound 8 µM)
NCI-H596	0.965	1.04	1.13	0.956	1.02	0.891	0.919	0.987	1.03	0.998	0.913	0.342	0.388	0.366	0.8	0.746	0.715	0.651
NCI-H727	0.639	0.465	0.576	0.67	0.621	0.515	0.551		0.539	0.344	0.382	0.378	0.317	0.164	0.637	0.63	0.699	0.69
H3255	0.809	0.858	0.794	0.619	0.217	0.664	0.47	0.825	1.1	0.84	0.67	0.42	0.48	0.432	0.618	0.607	0.566	0.508
NCI-H1437	1.13	1.13	1.09	0.412	0.433	0.405	0.291	1.17	1.16	1.05	0.786	0.339	0.528	0.119	0.672	0.662	0.631	0.602
LU99A	0.322	0.325	0.272	0.27	0.294	0.23	0.235	0.289	0.241	0.193	0.273	0.325	0.369	0.217	0.259	0.264	0.261	0.269
HCC-827	0.161	0.205	0.219	0.557	0.469	0.47	0.371	0.92	0.762	0.508	0.56	0.99	0.927	0.941	0.692	0.642	0.632	0.617
LK-2	0.286	0.393	0.293	0.173	0.166	0.192	0.171	0.16	0.173	0.238	0.175		0.563	0.399	0.625	0.732	0.612	0.775
BEN	0.623	0.553	0.568	0.684	0.396	0.577	0.492	0.353	0.332	0.29	0.264	0.477	0.575	0.498	0.877	1.12	1.03	0.962
NCI-H23	0.356	0.27	0.183	0.418	0.401	0.392	0.31	0.226	0.194	0.213	0.191	0.428	0.619	0.156	0.329	0.329	0.321	0.273
